Experimental data reported in patent publication US10166225B2, “Method for treating osteoporosis” (Exelixis, Inc., priority 2011, dated 2019).

System: human osteoclasts
Experiment: Osteoclast activity assay (resorption index CTX/TRACP 5b)
Assay type: cell-based
Experimental: In the second part, the culture medium of human osteoclasts was replaced by new medium at day 7, and the formed mature osteoclasts were cultured for an additional 3 days, allowing them to resorb bone. Compound 1 was added into the culture medium at day 7. […] C-terminal cross-linked telopeptides of type I collagen (CTX) were measured in the culture medium collected at day 10 to quantitate bone resorption during days 7-10. […] was measured at day 7 to quantitate osteoclast number before Compound 1 was added. The CTX values were divided by the […] values, resulting as a resorption index that indicates mean osteoclast activity. […] The objective of this study was to investigate the effects of Compound 1 selected by the Sponsor on differentiation and activity of human osteoclasts and mouse osteoblasts in vitro. The effects on osteoclasts were studied using a model where bone marrow-derived human osteoclast precursor cells are cultured on bovine bone slices for 7 days in conditions favouring osteoclast differentiation, and allowed to differentiate into bone-resorbing osteoclasts. After completion of osteoclast differentiation at day 7, the culture medium was removed and new culture medium favouring osteoclast activity was added into the wells. The mature osteoclasts were then cultured for an additional 3 days, allowing them to resorb bone. In the osteoclast differentiation assay, the test compounds and a reference inhibitor osteoprotegerin (OPG) were added into cultures at day 0. In the osteoclast activity assay, the test compounds and a reference inhibitor E64 were added into cultures at day 7. Seven concentrations in 8 replicates were tested in both assays. Tartrate-resistant acid phosphatase 5b activity ([…]) was measured from the culture medium collected at day 7 as an index of the number of osteoclasts formed in each well during the differentiation period. C-terminal cross-linked telopeptides of type I collagen (CTX) was measured from the culture medium collected at day 10 to quantitate bone resorption during days 7-10. A human osteoclast culture system was developed for use in this study where CD34+ osteoclast precursor cells derived from human bone marrow (Poietics® Human Osteoclast Precursors, Lonza, Walkersville, USA) are cultured on bovine bone slices in the presence of appropriate growth factors, including M-CSF and RANK-ligand ([…] et al. 2009). The cells are first allowed to differentiate into mature bone-resorbing osteoclasts, and the formed osteoclasts are then allowed to resorb bone. The test and reference compounds are added into the cell cultures at the beginning of the differentiation and/or the resorption period, and their effects on the differentiation and/or resorbing activity of osteoclasts are determined. Secreted […] is determined from the culture medium after the differentiation period using a commercially available method (BoneTRAPÒ, IDS Ltd, Boldon, UK). Secreted […] describes accurately the number of osteoclasts formed in each well during the differentiation period. CTX is determined from the culture medium after the resorption period using a commercially available method (CrossLapsÒ for cultures, IDS Ltd, Boldon, UK). CTX describes accurately the amount of bone collagen degradation products released into the culture medium in each well during the resorption period. […] In this study, human bone marrow-derived CD34+ stem cells (10000 cells/well) were suspended in culture medium and allowed to attach to bovine bone slices in 96-well tissue culture plates. The culture medium (containing 10% FBS, OCP BulletKit® Lonza, Walkersville, USA) was supplemented with appropriate amounts of important growth factors favoring osteoclast differentiation and activity, including M-CSF (33 ng/ml, OCP BulletKit® Lonza, Walkersville, USA) and RANK-ligand (66 ng/ml, OCP BulletKit® Lonza, Walkersville, USA) in 200 μl of medium. The cells were incubated in a CO2 incubator in humidified atmosphere of 95% air and 5% carbon dioxide at 37° C. […]

COc1cc2nccc(Oc3ccc(NC(=O)C4(C(=O)Nc5ccc(F)cc5)CC4)cc3)c2cc1OC [Compound 1, N-(4-{[6,7-bis(methyloxy)quinolin-4-yl]oxy}phenyl)-N′-(4-fluorophenyl)cyclopropane-1,1-dicarboxamide] was tested, and the activity at 0.004 µM (Homo sapiens, Osteoclast, 0.004 μM Compound 1, read-out: CTX at Day 10 and TRACP 5b Activity at Day 7 (CTX/TRACP 5b), Percent Activity (%) Compared to BL) was 84%, the activity at 0.012 µM (Homo sapiens, Osteoclast, 0.012 μM Compound 1, read-out: CTX at Day 10 and TRACP 5b Activity at Day 7 (CTX/TRACP 5b), Percent Activity (%) Compared to BL) was 104% and the activity at 0.037 µM (Homo sapiens, Osteoclast, 0.037 μM Compound 1, read-out: CTX at Day 10 and TRACP 5b Activity at Day 7 (CTX/TRACP 5b), Percent Activity (%) Compared to BL) was 115%. It also gave an activity at 0.11 µM (Homo sapiens, Osteoclast, 0.11 μM Compound 1, read-out: CTX at Day 10 and TRACP 5b Activity at Day 7 (CTX/TRACP 5b), Percent Activity (%) Compared to BL) of 107%, an activity at 0.33 µM (Homo sapiens, Osteoclast, 0.33 μM Compound 1, read-out: CTX at Day 10 and TRACP 5b Activity at Day 7 (CTX/TRACP 5b), Percent Activity (%) Compared to BL) of 102% and an activity at 1 µM (Homo sapiens, Osteoclast, 1.0 μM Compound 1, read-out: CTX at Day 10 and TRACP 5b Activity at Day 7 (CTX/TRACP 5b), Percent Activity (%) Compared to BL) of 111%. For the same compound, the activity at 3 µM (Homo sapiens, Osteoclast, 3.0 μM Compound 1, read-out: CTX at Day 10 and TRACP 5b Activity at Day 7 (CTX/TRACP 5b), Percent Activity (%) Compared to BL) was 85% and the “effect on osteoclast resorption activity” value (tested concentrations 0.004-3.0 μM) was “no effects”.
